Measured values published in patent US8334382B2, “Substituted biaryl piperazinyl-pyridine analogues” (Neurogen Corporation, priority 2004, dated 2012).

Molecular target: T1, human capsaicin receptor (Homo sapiens, UniProt Q8NER1)
T1 construct: expressed in transfected cells; host or cells: HEK293, stably transfected with pBK-CMV construct
Experiment: Calcium mobilization assay, determination of antagonist activity
Type: cell-based
Details: capsaicin at EC50; cells expressing human capsaicin receptor; Example 6
Description: A cDNA encoding full length human capsaicin receptor (SEQ ID NO:1, 2 or 3 of U.S. Pat. No. 6,482,611) is subcloned in the plasmid pBK-CMV (Stratagene, La Jolla, Calif.) for recombinant expression in mammalian cells.
Human embryonic kidney (HEK293) cells are transfected with the pBK-CMV expression construct encoding the full length human capsaicin receptor using standard methods. The transfected cells are selected for two weeks in media containing G418 (400 μg/ml) to obtain a pool of stably transfected cells. Independent clones are isolated from this pool by limiting dilution to obtain clonal stable cell lines for use in subsequent experiments.
Cells transfected with expression plasmids (as described in Example 4) and thereby expressing human capsaicin receptor are seeded and grown to 70-90% confluency in FALCON black-walled, clear-bottomed 96-well plates (#3904, BECTON-DICKINSON, Franklin Lakes, N.J.). The culture medium is emptied from the 96 well plates and FLUO-3 AM calcium sensitive dye (Molecular Probes, Eugene, Oreg.) is added to each well (dye solution: 1 mg FLUO-3 AM, 440 μL DMSO and 440 μl 20% pluronic acid in DMSO, diluted 1:250 in Krebs-Ringer HEPES (KRH) buffer (25 mM HEPES, 5 mM KCl, 0.96 mM NaH2PO4, 1 mM MgSO4, 2 mM CaCl2, 5 mM glucose, 1 mM probenecid, pH 7.4), 50 μl diluted solution per well). Plates are covered with aluminum foil and incubated at 37° C. for 1-2 h in an environment containing 5% CO2. After the incubation, the dye is emptied from the plates, and the cells are washed once with KRH buffer, and resuspended in KRH buffer.
To measure the ability of a test compound to agonize or antagonize a calcium mobilization response in cells expressing capsaicin receptors to capsaicin or other vanilloid agonist, the EC50 of the agonist capsaicin is first determined. An additional 20 μl of KRH buffer and 1 μl DMSO is added to each well of cells, prepared as described above. 100 μl capsaicin in KRH buffer is automatically transferred by the FLIPR instrument to each well. Capsaicin-induced calcium mobilization is monitored using either FLUOROSKAN ASCENT (Labsystems; Franklin, Mass.) or FLIPR (fluorometric imaging plate reader system; Molecular Devices, Sunnyvale, Calif.) instruments. Data obtained between 30 and 60 seconds after agonist application are used to generate an 8-point concentration response curve, with final capsaicin concentrations of 1 nM to 3 μM. KALEIDAGRAPH software (Synergy Software, Reading, Pa.) is used to fit the data to the equation: y=a*(1/(1+(b/x)^c)) to determine the 50% excitatory concentration (EC50) for the response. In this equation, y is the maximum fluorescence signal, x is the concentration of the agonist or antagonist (in this case, capsaicin), a is the Emax, b corresponds to the EC50 value and c is the Hill coefficient. Determination of Agonist Activity
Test compounds are dissolved in DMSO, diluted in 20 μl KRH buffer so that the final concentration of test compounds in the assay well is between 1 μM and 5 μM, and added to cells prepared as described above. The 96 well plates containing prepared cells and test compounds are incubated in the dark, at room temperature for 0.5 to 6 h. It is important that the incubation not continue beyond 6 h. Just prior to determining the fluorescence response, 100 μl capsaicin in KRH buffer at twice the EC50 concentration determined as described above is automatically added by the FLIPR instrument to each well of the 96 well plate for a final sample volume of 200 μl and a final capsaicin concentration equal to the EC50. The final concentration of test compounds in the assay wells is between 1 μM and 5 μM. […] The concentration of antagonist required to provide a 50% decrease, relative to the response observed in the presence of capsaicin and without antagonist, is the IC50 for the antagonist, and is preferably below 1 micromolar, 100 nanomolar, 10 nanomolar or 1 nanomolar.

T1 sequence (Q8NER1 whole entry): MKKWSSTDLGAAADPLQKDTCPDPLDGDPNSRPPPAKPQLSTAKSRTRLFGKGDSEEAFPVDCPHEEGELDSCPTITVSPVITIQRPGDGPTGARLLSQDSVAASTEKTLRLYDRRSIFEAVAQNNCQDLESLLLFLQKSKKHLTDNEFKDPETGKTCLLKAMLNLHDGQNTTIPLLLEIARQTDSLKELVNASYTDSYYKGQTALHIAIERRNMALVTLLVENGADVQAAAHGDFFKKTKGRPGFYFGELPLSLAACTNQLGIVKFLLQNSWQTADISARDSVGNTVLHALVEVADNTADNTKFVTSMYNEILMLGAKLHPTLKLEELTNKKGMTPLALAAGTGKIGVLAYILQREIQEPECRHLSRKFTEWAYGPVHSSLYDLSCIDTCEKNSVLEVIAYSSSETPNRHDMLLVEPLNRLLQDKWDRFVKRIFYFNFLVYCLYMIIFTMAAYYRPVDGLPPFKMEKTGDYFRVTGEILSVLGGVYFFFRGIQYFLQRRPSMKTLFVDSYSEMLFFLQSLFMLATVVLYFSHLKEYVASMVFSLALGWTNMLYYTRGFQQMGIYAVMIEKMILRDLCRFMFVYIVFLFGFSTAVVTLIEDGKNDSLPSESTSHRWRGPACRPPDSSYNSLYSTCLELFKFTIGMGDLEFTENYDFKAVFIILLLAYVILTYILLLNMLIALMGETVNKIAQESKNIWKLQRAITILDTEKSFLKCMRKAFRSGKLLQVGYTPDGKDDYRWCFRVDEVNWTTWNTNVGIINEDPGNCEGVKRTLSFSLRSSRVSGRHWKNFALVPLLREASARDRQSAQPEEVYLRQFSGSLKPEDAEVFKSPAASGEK

| Structure (SMILES) | IC50 [nM] |
| --- | --- |
| CCOC(=O)c1cnc(N2CCN(c3cc(-c4ccc(F)cc4)nc(N4CCCC4)n3)[C@H](C)C2)c(Cl)c1 [Example 28, 5-Chloro-6-{4-[6-(4-fluoro-phenyl)-2-pyrrolidin-1-yl-pyrimidin-4-yl]-3-(R)-methyl-piperazin-1-yl}-nicotinic acid ethyl ester] | ≤ 1000 |
| Cc1cccc(-c2cc(N3CCN(c4ncc(C(=O)O)cc4Cl)C[C@H]3C)nc(N3CCCC3C)n2)c1 (stereo partly drawn) [Example 51, 5-Chloro-6-{3-(R)-methyl-4-[2-(2-methyl-pyrrolidin-1-yl)-6-m-tolyl-pyrimidin-4-yl]-piperazin-1-yl}-nicotinic acid] | ≤ 1000 |
| CC1CCCN1c1nc(-c2ccc(F)c(Cl)c2)cc(N2CCN(c3ncc(C(N)=O)cc3Cl)CC2)n1 (stereo not drawn) [Example 15, 5-Chloro-6-{4-[6-(3-chloro-4-fluoro-phenyl)-2-(2-methyl-pyrrolidin-1-yl)-pyrimidin-4-yl]-piperazin-l-yl}-nicotinamide] | ≤ 1000 |
| CCOC(=O)c1cnc(N2CCN(c3cc(-c4cccc(C)c4)nc(N4CCCC4C)n3)[C@H](C)C2)c(Cl)c1 (stereo partly drawn) [Example 46, 5-Chloro-6-{3-(R)-methyl-4-[2-(2-methyl-pyrrolidin-1-yl)-6-m-tolyl-pyrimidin-4-yl]-piperazin-1-yl}-nicotinic acid ethyl ester] | ≤ 1000 |
| Cc1cc(C(=O)NCc2cccs2)cnc1N1CCN(c2cc(-c3ccc(F)cc3)nc(N3CCCC3C)n2)CC1 (stereo not shown) [Example 118, 6-{4-[6-(4-fluorophenyl)-2-(2-methylpyrrolidin-1-yl)pyrimidin-4-yl]piperazin-1-yl}-5-methyl-N-(2-thienylmethyl) nicotinamide] | ≤ 1000 |
| Cc1cc(CO)cnc1N1CCN(c2cc(-c3ccccc3)nc(N3CCCC3C)n2)CC1 (stereo not shown) [Example 71, (5-Methyl-6-{4-[2-(2-methyl-pyrrolidin-1-yl)-6-phenyl-pyrimidin-4-yl]-piperazin-1-yl}-pyridin-3-yl)-methanol] | ≤ 1000 |
| Cc1cc(OCCN(C)C)cnc1N1CCN(c2cc(-c3ccc(F)c(Cl)c3)nc(N3CCCC3C)n2)CC1 (stereo not shown) [Example 6, [2-(6-{4-[6-(3-Chloro-4-fluoro-phenyl)-2-(2-methyl-pyrrolidin-1-yl)-pyrimidin-4-yl]-piperazin-1-yl}-5-methyl-pyridin-3-yloxy)-ethyl]-dimethyl-amine] | ≤ 1000 |
| Cc1cccc(-c2cc(N3CCN(c4ncc(C(=O)O)cc4C)C[C@H]3C)nc(N3CCCC3C)n2)c1 (stereo partly drawn) [Example 69, 5-Methyl-6-{3-(R)-methyl-4-[2-(2-methyl-pyrrolidin-1-yl)-6-m-tolyl-pyrimidin-4-yl]-piperazin-1-yl}-nicotinic acid] | ≤ 1000 |
| C[C@@H]1CN(c2ncc(C(=O)O)cc2Cl)CCN1c1cc(-c2ccc(F)cc2)nc(N2CCCC2)n1 [Example 30, 5-Chloro-6-{4-[6-(4-fluoro-phenyl)-2-pyrrolidin-1-yl-pyrimidin-4-yl]-3-(R)-methyl-piperazin-1-yl}-nicotinic acid] | ≤ 1000 |
| Cc1cccc(-c2cc(N3CCN(c4ncc(C(=O)O)cc4C)CC3)nc(N3CCCC3C)n2)c1 (stereo not shown) [Example 76, 5-Methyl-6-{4-[2-(2-methyl-pyrrolidin-1-yl)-6-m-tolyl-pyrimidin-4-yl]-piperazin-1-yl}-nicotinic acid] | ≤ 1000 |
| COC(=O)c1cnc(N2CCN(c3cc(-c4ccc(F)c(Cl)c4)nc(N4CCCC4C)n3)CC2)c(Cl)c1 (stereo not shown) [Example 20, 5-Chloro-6-{4-[6-(3-chloro-4-fluoro-phenyl)-2-(2-methyl-pyrrolidin-1-yl)-pyrimidin-4-yl]-piperazin-1-yl}-nicotinic acid methyl ester] | ≤ 1000 |
| Cc1cc(C(=O)O)cnc1N1CCN(c2cc(-c3ccc(F)cc3)nc(N3CCC[C@@H]3C)n2)[C@H](C)C1 [Example 99, 6-{4-[6-(4-Fluoro-phenyl)-2-(2-(S)-methyl-pyrrolidin-1-yl)-pyrimidin-4-yl]-3-(R)-methyl-piperazin-1-yl}-5-methyl-nicotinic acid] | ≤ 1000 |
| CCOC(=O)c1cnc(N2CCN(c3cc(-c4ccnc(C(C)C)c4)nc(N4CCCC4C)n3)[C@H](C)C2)c(Cl)c1 (stereo partly drawn) [Example 43, 5-Chloro-6-{4-[6-(2-isopropyl-pyridin-4-yl)-2-(2-methyl-pyrrolidin-1-yl)-pyrimidin-4-yl]-3-(R)-methyl-piperazin-1-yl}-nicotinic acid ethyl ester] | ≤ 1000 |

Next, values leading:

| IC50 [nM] | Structure (SMILES) |
| --- | --- |
| ≤ 1000 | Cc1ccc(-c2cc(N3CCN(c4ncc(C(=O)NCCO)cc4C)C[C@H]3C)nc(N3CCCC3C)n2)cn1 (stereo partly drawn) [Example 171, N-(2-Hydroxy-ethyl)-5-methyl-6-{3-(R)-methyl-4-[6-(6-methyl-pyridin-3-yl)-2-(2-methyl-pyrrolidin-1-yl)-pyrimidin-4-yl]-piperazin-1-yl}-nicotinamide] |
| ≤ 1000 | Cc1cc(C(=O)N2CCOCC2)cnc1N1CCN(c2cc(-c3ccc(F)cc3)nc(N3CCCC3C)n2)CC1 (stereo not shown) [Example 124, 4-[(6-{4-[6-(4-fluorophenyl)-2-(2-methylpyrrolidin-1-yl)pyrimidin-4-yl]piperazin-1-yl}-5-methylpyridin-3-yl)carbonyl]morpholine] |
| ≤ 1000 | CCOC(=O)c1cnc(N2CCN(c3cc(-c4ccc(F)c(Cl)c4)nc(N4CCC[C@H]4C)n3)C[C@H]2C)c(Cl)c1 [Example 174, 5-Chloro-6-{4-[6-(3-chloro-4-fluoro-phenyl)-2-(2-(R)-methyl-pyrrolidin-1-yl)-pyrimidin-4-yl]-2-(R)-methyl-piperazin-1-yl}-nicotinic acid ethyl ester] |
| ≤ 1000 | Cc1cc(C(=O)N(C)Cc2ccccc2)cnc1N1CCN(c2cc(-c3ccc(F)cc3)nc(N3CCCC3C)n2)CC1 (stereo not shown) [Example 121, N-benzyl-6-{4-[6-(4-fluorophenyl)-2-(2-methylpyrrolidin-1-yl)pyrimidin-4-yl]piperazin-1-yl}-N,5-dimethylnicotinamide] |
| ≤ 1000 | Cc1cc(C(=O)N2CCC(c3ccccc3)CC2)cnc1N1CCN(c2cc(-c3ccc(F)cc3)nc(N3CCCC3C)n2)CC1 (stereo not shown) [Example 130, 4-(4-fluorophenyl)-6-(4-{3-methyl-5-[(4-phenylpiperidin-1-yl)carbonyl]pyridin-2-yl}piperazin-1-yl)-2-(2-methylpyrrolidin-1-yl)pyrimidine] |
| ≤ 1000 | CC1CCCN1c1nc(-c2ccc(F)cc2)cc(N2CCN(c3ncc(CC(N)=O)cc3Cl)CC2)n1 (stereo not shown) [Example 152, 2-(5-Chloro-6-{4-[6-(4-fluoro-phenyl)-2-(2-methyl-pyrrolidin-1-yl)-pyrimidin-4-yl]-piperazin-1-yl}-pyridin-3-yl)-acetamide] |
| ≤ 1000 | Cc1cc(CCO)cnc1N1CCN(c2cc(-c3ccc(F)cc3)nc(N3CCC[C@H]3C)n2)[C@H](C)C1 [Example 181, 2-[6-((3R)-4-{6-(4-fluorophenyl)-2-[(2R)-2-methyl-1-pyrrolidinyl]-4-pyrimidinyl}-3-methyl-1-piperazinyl)-5-methyl-3-pyridinyl]ethanol] |
| ≤ 1000 | C[C@@H]1CCCN1c1nc(-c2ccc(F)cc2)cc(N2CCN(c3ncc(C(=O)O)cc3C(F)(F)F)CC2)n1 [Example 177, 6-{4-[6-(4-Fluoro-phenyl)-2-(2-(R)-methyl-pyrrolidin-1-yl)-pyrimidin-4-yl]-piperazin-1-yl}-5-trifluoromethyl-nicotinic acid] |
| ≤ 1000 | CCOCCNC(=O)c1cnc(N2CCN(c3cc(-c4ccc(F)cc4)nc(N4CCCC4C)n3)CC2)c(C)c1 (stereo not shown) [Example 119, N-(2-ethoxyethyl)-6-{4-[6-(4-fluorophenyl)-2-(2-methylpyrrolidin-1-yl)pyrimidin-4-yl]piperazin-1-yl}-5-methylnicotinamide] |
